Results on 16 molecules are retold here after PMC7565091, “Synthesis and Inhibitory Studies of Phosphonic Acid Analogues of Homophenylalanine and Phenylalanine towards Alanyl Aminopeptidases” (Biomolecules, 2020).

T2 sequence (P15144 whole entry): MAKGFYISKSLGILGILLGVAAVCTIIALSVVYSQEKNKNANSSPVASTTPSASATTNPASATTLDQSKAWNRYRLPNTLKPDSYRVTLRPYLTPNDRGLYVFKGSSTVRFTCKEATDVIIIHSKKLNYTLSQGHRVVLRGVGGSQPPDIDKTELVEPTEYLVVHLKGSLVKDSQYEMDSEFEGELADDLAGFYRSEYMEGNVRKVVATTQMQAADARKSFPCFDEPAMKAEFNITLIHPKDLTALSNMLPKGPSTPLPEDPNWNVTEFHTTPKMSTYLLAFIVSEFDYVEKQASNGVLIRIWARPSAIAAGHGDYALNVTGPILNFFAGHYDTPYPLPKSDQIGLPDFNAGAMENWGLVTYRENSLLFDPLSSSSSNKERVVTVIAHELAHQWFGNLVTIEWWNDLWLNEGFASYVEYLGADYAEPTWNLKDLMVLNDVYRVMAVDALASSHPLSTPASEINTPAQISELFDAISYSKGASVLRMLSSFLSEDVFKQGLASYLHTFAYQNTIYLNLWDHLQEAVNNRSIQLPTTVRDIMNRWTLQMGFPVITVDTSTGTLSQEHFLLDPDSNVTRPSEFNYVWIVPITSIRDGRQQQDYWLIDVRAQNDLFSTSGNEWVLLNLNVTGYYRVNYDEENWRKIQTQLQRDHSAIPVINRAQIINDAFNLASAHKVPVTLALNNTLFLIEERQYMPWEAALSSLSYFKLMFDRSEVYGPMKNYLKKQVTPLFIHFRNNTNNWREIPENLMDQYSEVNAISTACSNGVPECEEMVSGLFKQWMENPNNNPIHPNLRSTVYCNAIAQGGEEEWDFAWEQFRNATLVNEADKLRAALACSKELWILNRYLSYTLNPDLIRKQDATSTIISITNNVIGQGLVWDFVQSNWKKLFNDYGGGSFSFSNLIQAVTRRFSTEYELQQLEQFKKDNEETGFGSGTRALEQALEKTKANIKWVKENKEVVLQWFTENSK

The target of one series is T1, porcine kidney alanine aminopeptidase (pAPN, EC 3.4.11.2) (Sus scrofa, UniProt P15145).
T1 construct: porcine kidney alanine aminopeptidase (pAPN, EC 3.4.11.2); purchased Sigma Aldrich (Poznan, Poland); host or cells: porcine kidney (tissue-derived)
T1 sequence (P15145 1-963): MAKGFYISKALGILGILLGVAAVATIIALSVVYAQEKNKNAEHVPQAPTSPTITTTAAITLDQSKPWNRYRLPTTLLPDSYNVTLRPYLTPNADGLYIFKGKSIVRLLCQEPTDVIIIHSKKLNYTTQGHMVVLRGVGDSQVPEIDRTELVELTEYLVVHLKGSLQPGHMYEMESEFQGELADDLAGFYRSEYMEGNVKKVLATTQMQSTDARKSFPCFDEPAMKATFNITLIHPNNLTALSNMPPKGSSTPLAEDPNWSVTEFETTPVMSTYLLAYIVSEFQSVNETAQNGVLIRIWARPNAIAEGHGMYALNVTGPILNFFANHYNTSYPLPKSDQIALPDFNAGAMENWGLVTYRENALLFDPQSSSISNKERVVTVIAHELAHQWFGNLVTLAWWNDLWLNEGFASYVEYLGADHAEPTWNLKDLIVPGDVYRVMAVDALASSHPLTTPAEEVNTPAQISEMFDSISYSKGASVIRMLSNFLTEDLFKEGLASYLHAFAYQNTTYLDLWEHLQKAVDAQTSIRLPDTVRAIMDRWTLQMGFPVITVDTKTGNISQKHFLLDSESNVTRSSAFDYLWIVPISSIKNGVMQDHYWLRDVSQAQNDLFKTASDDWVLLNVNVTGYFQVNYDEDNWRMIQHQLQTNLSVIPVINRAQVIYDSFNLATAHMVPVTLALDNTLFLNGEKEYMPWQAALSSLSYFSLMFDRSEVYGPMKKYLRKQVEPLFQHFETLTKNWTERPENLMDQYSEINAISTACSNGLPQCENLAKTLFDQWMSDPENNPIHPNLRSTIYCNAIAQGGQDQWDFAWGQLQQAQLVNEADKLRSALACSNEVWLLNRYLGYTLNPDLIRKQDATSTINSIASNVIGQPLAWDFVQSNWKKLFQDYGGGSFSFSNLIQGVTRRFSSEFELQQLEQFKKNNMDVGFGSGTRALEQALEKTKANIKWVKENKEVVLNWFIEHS
Assay: not given
Particulars: data from previous studies; cited from earlier work.
On to `NC(Cc1ccc(Cl)cc1F)P(=O)(O)O` (stereo not shown) [Compound 17o], for which the Ki (commonly a measure of affinity in units of concentration, obtained from inhibition or displacement) was 160000 ± 11000 nM.

Turning to `NC(Cc1ccc(Cl)c(F)c1)P(=O)(O)O` (stereo not shown) [Compound 17s], the Ki is 14800 ± 900 nM.

On to `NC(Cc1ccc(F)c(Cl)c1)P(=O)(O)O` (stereo not shown) [Compound 17t], for which the inhibition constant Ki was 6930 ± 780 nM.

A further series concerns the target T2, Recombinant human alanine aminopeptidase (hAPN, EC 3.4.11.2) (Homo sapiens, UniProt P15144).
T2 construct: purchased R&D System (Minneapolis, MN)
Assay: not given
Particulars: data from previous studies; cited from earlier work.
As for `NC(Cc1ccc(Cl)cc1F)P(=O)(O)O` (stereo not shown) [Compound 17o], the Ki is 17800 ± 2090 nM.

In the case of `NC(Cc1ccc(Cl)c(F)c1)P(=O)(O)O` (stereo not shown) [Compound 17s], the inhibitory constant (Ki) was 1010 ± 160 nM.

Take `NC(Cc1ccc(F)c(Cl)c1)P(=O)(O)O` (stereo not shown) [Compound 17t]: the Ki is 542 ± 152 nM.

For the next series, the target named is T1, porcine kidney alanine aminopeptidase (pAPN, EC 3.4.11.2). Description: Fluorogenic (Ala-AMC) enzyme inhibition assay, pAPN. Conditions: racemic compounds; substrate Ala-AMC 100 µM; 50 mM Tris-HCl pH 7.20; 37 °C. It counts as biochemical.
For the molecule “1-Amino-3-(2-Bromo-4-Fluorophenyl)ethylphosphonic Acid [Compound 17a]”, the inhibition constant Ki was determined as 70000 ± 6600 nM.

On to “1-Amino-3-(4-Bromo-2-Fluorophenyl)ethylphosphonic Acid [Compound 17d]”, for which affinity was put at a Ki of 82500 ± 2000 nM.

Molecule “1-Amino-3-(4-Bromo-3-Fluorophenyl)ethylphosphonic Acid [Compound 17e]” returned an inhibition constant (Ki) of 4230 ± 440 nM.

`NC(CCc1ccccc1F)P(=O)(O)O` (stereo not shown) [Compound 15b, 1-Amino-3-(2-Fluorophenyl)propylphosphonic Acid] showed an inhibitory constant (Ki) of 12700 ± 800 nM.

`NC(CCc1cccc(F)c1)P(=O)(O)O` (stereo not shown) [Compound 15c, 1-Amino-3-(3-Fluorophenyl)propylphosphonic Acid] returned an inhibition constant (Ki) of 2630 ± 180 nM.

Molecule `NC(CCc1ccc(F)cc1)P(=O)(O)O` (stereo not shown) [Compound 15d, 1-Amino-3-(4-Fluorophenyl)propylphosphonic Acid] gave an inhibition constant (Ki) of 1690 ± 810 nM.

For the molecule `NC(CCc1ccc(F)cc1F)P(=O)(O)O` (stereo not shown) [Compound 15e, 1-Amino-3-(2,4-Difluorophenyl)propylphosphonic Acid], the affinity corresponds to a Ki of 1710 ± 460 nM.

`NC(CCc1ccc(F)c(F)c1)P(=O)(O)O` (stereo not shown) [Compound 15f, 1-Amino-3-(3,4-Difluorophenyl)propylphosphonic Acid] returned a Ki of 1020 ± 300 nM.

`NC(CCc1ccc(C(F)(F)F)cc1)P(=O)(O)O` (stereo not shown) [Compound 15g, 1-Amino-3-(4-Trifluoromethylphenyl)propylphosphonic Acid] registered a Ki of 976 ± 99 nM.

In the case of `NC(CCc1ccccc1C(F)(F)F)P(=O)(O)O` (stereo not shown) [Compound 15h, 1-Amino-3-(2-Trifluoromethylphenyl)propylphosphonic Acid], the Ki is 7490 ± 580 nM.

Molecule `NC(Cc1cc(F)ccc1Br)P(=O)(O)O` (stereo not shown) [Compound 17b] registered a Ki of 379000 ± 126000 nM.

Molecule `NC(Cc1ccc(F)c(Br)c1)P(=O)(O)O` (stereo not shown) [Compound 17c, 1-Amino-3-(3-Bromo-4-Fluorophenyl)ethylphosphonic Acid] registered a Ki of 2220 ± 140 nM.

The series is the same for the next values; noted with them: substrate constant, determined analogously to the literature [23]; read-out: Km towards Ala-AMC, pAPN.
In the case of `Cc1cc(=O)oc2cc(NC(=O)[C@H](C)N)ccc12` [Ala-AMC, L-alanine-4-methylcoumaryl-7-amide, reference compound], the Km (in general, the substrate concentration at which the rate is half of its maximum) was found to be 90 µM.

System in another series: not given
Assay: not given
Settings: not given
On to `NC(CCc1ccccc1F)P(=O)(O)O` (stereo not shown) [Compound 15b, 1-Amino-3-(2-Fluorophenyl)propylphosphonic Acid], for which the melting point (commonly the temperature of the solid-liquid transition) fell in the range of 292 to 294 °C.

On to `NC(CCc1cccc(F)c1)P(=O)(O)O` (stereo not shown) [Compound 15c, 1-Amino-3-(3-Fluorophenyl)propylphosphonic Acid], for which the melting point is 292 to 294 °C.

Regarding `NC(CCc1ccc(F)cc1)P(=O)(O)O` (stereo not shown) [Compound 15d, 1-Amino-3-(4-Fluorophenyl)propylphosphonic Acid], the melting point is 303 to 305 °C.

`NC(CCc1ccc(F)cc1F)P(=O)(O)O` (stereo not shown) [Compound 15e, 1-Amino-3-(2,4-Difluorophenyl)propylphosphonic Acid] returned a melting point of 304 to 306 °C.

Molecule `NC(CCc1ccc(F)c(F)c1)P(=O)(O)O` (stereo not shown) [Compound 15f, 1-Amino-3-(3,4-Difluorophenyl)propylphosphonic Acid] showed a melting point of 292 to 293 °C.

As to `NC(CCc1ccc(C(F)(F)F)cc1)P(=O)(O)O` (stereo not shown) [Compound 15g, 1-Amino-3-(4-Trifluoromethylphenyl)propylphosphonic Acid], the melting point fell in the range of 295 to 296 °C.

In the case of `NC(CCc1ccccc1C(F)(F)F)P(=O)(O)O` (stereo not shown) [Compound 15h, 1-Amino-3-(2-Trifluoromethylphenyl)propylphosphonic Acid], the melting point fell in the range of 244 to 246 °C.

A further series concerns the target T2, Recombinant human alanine aminopeptidase (hAPN, EC 3.4.11.2). Description: Fluorogenic (Ala-AMC) enzyme inhibition assay, hAPN. It counts as biochemical. Particulars: racemic compounds; substrate Ala-AMC 50 µM; 50 mM Tris-HCl pH 7.00; 37 °C.
As for “1-Amino-3-(2-Bromo-4-Fluorophenyl)ethylphosphonic Acid [Compound 17a]”, the inhibition constant (Ki) came out at 14000 ± 400 nM.

As to “1-Amino-3-(4-Bromo-2-Fluorophenyl)ethylphosphonic Acid [Compound 17d]”, the inhibition constant (Ki) turned out to be 7360 ± 210 nM.

Consider “1-Amino-3-(4-Bromo-3-Fluorophenyl)ethylphosphonic Acid [Compound 17e]”, for which the Ki was determined as 670 ± 49 nM.

Take `NC(CCc1ccccc1F)P(=O)(O)O` (stereo not shown) [Compound 15b, 1-Amino-3-(2-Fluorophenyl)propylphosphonic Acid]: the Ki stood at 506 ± 38 nM.

On to `NC(CCc1cccc(F)c1)P(=O)(O)O` (stereo not shown) [Compound 15c, 1-Amino-3-(3-Fluorophenyl)propylphosphonic Acid], for which the Ki came to 129 ± 25 nM.

For `NC(CCc1ccc(F)cc1)P(=O)(O)O` (stereo not shown) [Compound 15d, 1-Amino-3-(4-Fluorophenyl)propylphosphonic Acid], the inhibition constant (Ki) is 249 ± 25 nM.

`NC(CCc1ccc(F)cc1F)P(=O)(O)O` (stereo not shown) [Compound 15e, 1-Amino-3-(2,4-Difluorophenyl)propylphosphonic Acid]: the Ki amounted to 661 ± 105 nM.

Turning to `NC(CCc1ccc(F)c(F)c1)P(=O)(O)O` (stereo not shown) [Compound 15f, 1-Amino-3-(3,4-Difluorophenyl)propylphosphonic Acid], the Ki was 149 ± 11 nM.

Consider `NC(CCc1ccc(C(F)(F)F)cc1)P(=O)(O)O` (stereo not shown) [Compound 15g, 1-Amino-3-(4-Trifluoromethylphenyl)propylphosphonic Acid], for which the inhibitory constant (Ki) stood at 347 ± 62 nM.

Take `NC(CCc1ccccc1C(F)(F)F)P(=O)(O)O` (stereo not shown) [Compound 15h, 1-Amino-3-(2-Trifluoromethylphenyl)propylphosphonic Acid]: the inhibition constant Ki was 804 ± 122 nM.

In the case of `NC(Cc1cc(F)ccc1Br)P(=O)(O)O` (stereo not shown) [Compound 17b], the Ki is 41700 ± 7400 nM.

In the case of `NC(Cc1ccc(F)c(Br)c1)P(=O)(O)O` (stereo not shown) [Compound 17c, 1-Amino-3-(3-Bromo-4-Fluorophenyl)ethylphosphonic Acid], the Ki is 248 ± 24 nM.

Staying with this series, now noted: ratio of Ki values versus compound 15a; the text says both aminopeptidases, the factor matches hAPN.
As to `NC(CCc1cccc(F)c1)P(=O)(O)O` (stereo not shown) [Compound 15c, 1-Amino-3-(3-Fluorophenyl)propylphosphonic Acid], the “times better inhibitor than 15a” value stood at 5.

The series is the same for the next values; noted with them: substrate constant, determined analogously to the literature [23]; read-out: Km towards Ala-AMC, hAPN.
Take `Cc1cc(=O)oc2cc(NC(=O)[C@H](C)N)ccc12` [Ala-AMC, L-alanine-4-methylcoumaryl-7-amide, reference compound]: the Km stood at 73 µM.
